In patent US8519128B2, “Pyripyropene derivatives having an ACAT2-inhibiting activity” (The Kitasato Institute, priority 2007, dated 2013):

Target: T1, ACAT 2 (Mus musculus, UniProt O88908)
T1 construct: The source of ACAT 2 enzyme used was a membrane fraction derived from mouse liver microsome; from tissue; host or cells: mouse liver (microsome fraction)
T1 sequence (O88908 1-525): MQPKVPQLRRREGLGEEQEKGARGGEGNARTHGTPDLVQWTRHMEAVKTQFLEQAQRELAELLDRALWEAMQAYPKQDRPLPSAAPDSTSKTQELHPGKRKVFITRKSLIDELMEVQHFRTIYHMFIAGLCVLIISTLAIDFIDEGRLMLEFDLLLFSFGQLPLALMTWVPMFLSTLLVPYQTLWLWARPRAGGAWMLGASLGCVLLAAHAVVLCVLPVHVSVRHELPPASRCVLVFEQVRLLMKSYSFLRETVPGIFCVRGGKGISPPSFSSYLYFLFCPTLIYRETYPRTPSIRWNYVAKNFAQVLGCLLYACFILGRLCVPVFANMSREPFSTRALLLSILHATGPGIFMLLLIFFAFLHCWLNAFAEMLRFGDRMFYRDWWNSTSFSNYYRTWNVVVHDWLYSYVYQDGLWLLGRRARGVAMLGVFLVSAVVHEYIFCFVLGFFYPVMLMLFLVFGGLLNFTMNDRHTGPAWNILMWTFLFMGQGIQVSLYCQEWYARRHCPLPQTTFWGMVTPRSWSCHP
Experiment: ACAT-inhibiting activity, mouse liver microsome membrane fraction, [14C]oleoyl-CoA
Type: biochemical
Settings: for IC50: mouse liver microsome, 5 minutes at 37° C.; for Specific activity: (inhibitory activity of test compound)/(inhibitory activity of pyripyropene A): relative to pyripyropene A
Procedure: The source of ACAT 2 enzyme used was a membrane fraction derived from mouse liver microsome. Mouse liver was homogenized in buffer solution A (50 mM Tris-HCl (pH 7.8), 1 mM ethylenediamine tetraacetate, and 1 mM phenylmethanesulfonyl fluoride) using a homogenizer of the Potter type (Tokyo-RIKO). The homogenate was centrifuged at 12000×g, and the supernatant was ultracentrifuged at 100000×g. The sediment was taken as a microsome fraction, and this fraction was adjusted to have a protein concentration of 5 mg/ml using buffer solution A.
The chloroform layer was evaporated to dryness and was used to spot a thin layer chromatography plate (silica gel plate, Merck, 0.5 mm thickness). Elution for separation was carried out using a solvent of hexane/diethyl ether/acetic acid (70:30:1, v/v).

| IC50 [nM] | Specific activity: (inhibitory activity of test compound)/(inhibitory activity of pyripyropene A) | Compound |
| --- | --- | --- |
| 10 to 100 | +++ (50 > specific activity > 10) | CC(=O)OCC1(C)C2C[C@H](OC(=O)c3ccccc3)[C@@]3(C)Oc4cc(-c5cccnc5)oc(=O)c4[C@H](O)C3[C@@]2(C)CC[C@@H]1OC(C)=O (stereo partly shown) [PRD 027, 7-benzoyl-7-deacetylpyripyropene A] |
| 100 to 1000 | + (5 > specific activity > 1) | CC(=O)OCC1(C)C2C[C@H](OC(=O)c3ccc(-c4ccccc4)cc3)[C@@]3(C)Oc4cc(-c5cccnc5)oc(=O)c4[C@H](O)C3[C@@]2(C)CC[C@@H]1OC(C)=O (stereo partly shown) [PRD 034, 7-p-biphenyl-4-carboxyl-7-deacetylpyripyropene A] |
| 100 to 1000 | + (5 > specific activity > 1) | CC(=O)OCC1(C)C2C[C@H](OC(=O)c3cc4ccccc4s3)[C@@]3(C)Oc4cc(-c5cccnc5)oc(=O)c4[C@H](O)C3[C@@]2(C)CC[C@@H]1OC(C)=O (stereo partly shown) [PRD 035, 7-benzo[b]thiophene-2-carboxyl-7-deacetylpyripyropene A] |
| 100 to 1000 | + (5 > specific activity > 1) | CC(=O)OCC1(C)C2C[C@H](OC(=O)c3ccc4ccccc4c3)[C@@]3(C)Oc4cc(-c5cccnc5)oc(=O)c4[C@H](O)C3[C@@]2(C)CC[C@@H]1OC(C)=O (stereo partly shown) [PRD 037, 7-2-naphthoyl-7-deacetylpyripyropene A] |

The next lines start with the compound.

| Compound | IC50 [nM] | Specific activity: (inhibitory activity of test compound)/(inhibitory activity of pyripyropene A) |
| --- | --- | --- |
| CC(=O)OCC1(C)C2C[C@H](OC(=O)c3cccc(Br)c3)[C@@]3(C)Oc4cc(-c5cccnc5)oc(=O)c4[C@H](O)C3[C@@]2(C)CC[C@@H]1OC(C)=O (stereo partly shown) [PRD 026, 7-m-bromobenzoyl-7-deacetylpyripyropene A] | < 10 | ++++ (100 > specific activity > 50) |
| CC(=O)OCC1(C)C2C[C@H](OC(=O)c3ccccc3F)[C@@]3(C)Oc4cc(-c5cccnc5)oc(=O)c4[C@H](O)C3[C@@]2(C)CC[C@@H]1OC(C)=O (stereo partly shown) [PRD 028, 7-o-fluorobenzoyl-7-deacetylpyripyropene A] | 10 to 100 | +++ (50 > specific activity > 10) |
| CC(=O)OCC1(C)C2C[C@H](OC(=O)c3ccc([N+](=O)[O-])cc3)[C@@]3(C)Oc4cc(-c5cccnc5)oc(=O)c4[C@H](O)C3[C@@]2(C)CC[C@@H]1OC(C)=O (stereo partly shown) [PRD 029, 7-p-nitrobenzoyl-7-deacetylpyripyropene A] | 10 to 100 | + (5 > specific activity > 1) |
| CC(=O)OCC1(C)C2C[C@H](OC(=O)c3ccc(N=[N+]=[N-])cc3)[C@@]3(C)Oc4cc(-c5cccnc5)oc(=O)c4[C@H](O)C3[C@@]2(C)CC[C@@H]1OC(C)=O (stereo partly shown) [PRD 030, 7-O-p-azidebenzoyl-7-deacetylpyripyropene A] | 10 to 100 | ++ (10 > specific activity > 5) |
| CC(=O)OCC1(C)C2C[C@H](OC(=O)c3ccc(O)cc3)[C@@]3(C)Oc4cc(-c5cccnc5)oc(=O)c4[C@H](O)C3[C@@]2(C)CC[C@@H]1OC(C)=O (stereo partly shown) [PRD 031, 7-p-hydroxybenzoyl-7-deacetylpyripyropene A] | 100 to 1000 | + (5 > specific activity > 1) |
| CC(=O)OCC1(C)C2C[C@H](OC(=O)c3ccc(N)cc3)[C@@]3(C)Oc4cc(-c5cccnc5)oc(=O)c4[C@H](O)C3[C@@]2(C)CC[C@@H]1OC(C)=O (stereo partly shown) [PRD 032, 7-p-aminobenzoyl-7-deacetylpyripyropene A] | 100 to 1000 | + (5 > specific activity > 1) |
| CC(=O)OCC1(C)C2C[C@H](OC(=O)c3ccc4c(c3)OC(F)(F)O4)[C@@]3(C)Oc4cc(-c5cccnc5)oc(=O)c4[C@H](O)C3[C@@]2(C)CC[C@@H]1OC(C)=O (stereo partly shown) [PRD 036, 7-2,2-difluorobenzo[d][1,3]dioxol-5-carboxyl-7-deacetylpyripyropene A] | 10 to 100 | ++ (10 > specific activity > 5) |
